Test results taken from ChEMBL document CHEMBL4825658, “Discovery of 3-(4-(2-((1H-Indol-5-yl)amino)-5-fluoropyrimidin-4-yl)-1H-pyrazol-1-yl)propanenitrile Derivatives as Selective TYK2 Inhibitors for the Treatment of Inflammatory Bowel Disease” (J Med Chem, 2021).
The source made the active and inactive calls. No cut-off for these calls is given here.

Assays:
Mus musculus [1] = assay: Anti-ulcerative colitis activity in DSS-induced C57BL/6 mouse ulcerative colitis model assessed as recovery of body weight at 10 to 20 mg/kg, po administrated for 6 days measured on day 9; assay type: functional, organism-based; conditions: dose 10-20 mg/kg, time 6.0 day
[2] = AUC (0 to t) in Sprague-Dawley rat at 20 mg/kg, po by LC-MS/MS analysis; assay type: ADME, organism-based; design: dose 20 mg/kg; conditions: in vivo
[3] = MRT (0 to t) in Sprague-Dawley rat at 5 mg/kg, iv by LC-MS/MS analysis; assay type: ADME, organism-based; conditions: in vivo
[4] = Tmax in Sprague-Dawley rat at 20 mg/kg, po by LC-MS/MS analysis; assay type: ADME, organism-based; conditions: in vivo
Mus musculus [5] = assay: Anti-inflammatory activity in DSS-induced C57BL/6 mouse ulcerative colitis model assessed as increase in IL-10 content in serum at 20 mg/kg, po administrated for 6 days measured on day 9; assay type: functional, organism-based; conditions: time 6.0 day
[6] = target: Serine/threonine-protein kinase 16 (Homo sapiens) (UniProt O75716); assay: Inhibition of human STK16 at 0.1 uM relative to control
Chain of Serine/threonine-protein kinase 16 (Homo sapiens) (O75716 whole entry): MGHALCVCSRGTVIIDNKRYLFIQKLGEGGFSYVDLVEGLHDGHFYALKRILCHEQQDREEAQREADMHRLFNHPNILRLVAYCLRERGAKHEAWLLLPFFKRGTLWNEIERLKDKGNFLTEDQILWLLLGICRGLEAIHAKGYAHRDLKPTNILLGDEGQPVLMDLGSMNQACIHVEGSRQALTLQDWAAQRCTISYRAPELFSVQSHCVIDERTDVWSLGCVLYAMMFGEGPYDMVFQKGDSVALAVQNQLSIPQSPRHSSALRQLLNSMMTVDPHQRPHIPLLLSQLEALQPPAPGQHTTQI

Mus musculus [7] = assay: Anti-ulcerative colitis activity in DSS-induced C57BL/6 mouse ulcerative colitis model assessed as recovery of colon epithelial and mucosal structure at 20 mg/kg, po administrated for 6 days measured on day 9 by microscopy based histopathological analysis; assay type: functional, organism-based; conditions: time 6.0 day
Mus musculus [8] = assay: Anti- inflammatory activity in DSS-induced C57BL/6 mouse ulcerative colitis model assessed as suppression of IL-6 content in serum at 20 mg/kg, po administrated for 6 days measured on day 9; assay type: functional, organism-based; conditions: time 6.0 day
[9] = Half life in Sprague-Dawley rat at 5 mg/kg, iv by LC-MS/MS analysis; assay type: ADME, organism-based; conditions: in vivo
[10] = MRT (0 to t) in Sprague-Dawley rat at 20 mg/kg, po by LC-MS/MS analysis; assay type: ADME, organism-based; conditions: in vivo
Mus musculus [11] = assay: Anti-inflammatory activity in DSS-induced C57BL/6 mouse ulcerative colitis model assessed as suppression of TNFalpha content in colon tissue at 20 mg/kg, po administrated for 6 days measured on day 9; assay type: functional, organism-based; conditions: time 6.0 day
Mus musculus [12] = assay: Anti-ulcerative colitis activity in DSS-induced C57BL/6 mouse ulcerative colitis model assessed as reduction in watery stool at 10 to 20 mg/kg, po administrated for 6 days measured on day 9; assay type: functional, organism-based; conditions: dose 10-20 mg/kg, time 6.0 day
[13] = Oral bioavailability in Sprague-Dawley rat at 20 mg/kg by LC-MS/MS analysis; assay type: ADME, organism-based; conditions: in vivo
Mus musculus [14] = assay: Anti-ulcerative colitis activity in DSS-induced C57BL/6 mouse ulcerative colitis model assessed as recovery of colon crypts at 20 mg/kg, po administrated for 6 days measured on day 9 by microscopy based histopathological analysis; assay type: functional, organism-based; conditions: time 6.0 day
[15] = Half life in Sprague-Dawley rat at 20 mg/kg, po by LC-MS/MS analysis; assay type: ADME, organism-based; conditions: in vivo
[16] = Clearance in Sprague-Dawley rat at 5 mg/kg, iv by LC-MS/MS analysis; assay type: ADME, organism-based; conditions: in vivo
Mus musculus [17] = assay: Anti-inflammatory activity in DSS-induced C57BL/6 mouse ulcerative colitis model assessed as increase in IL-10 content in colon tissue at 20 mg/kg, po administrated for 6 days measured on day 9; assay type: functional, organism-based; conditions: time 6.0 day
Mus musculus [18] = assay: Anti-ulcerative colitis activity in DSS-induced C57BL/6 mouse ulcerative colitis model assessed as increase in colon length at 10 to 20 mg/kg, po administrated for 6 days measured on day 9; assay type: functional, organism-based; conditions: dose 10-20 mg/kg, time 6.0 day
Mus musculus [19] = assay: Anti-inflammatory activity in DSS-induced C57BL/6 mouse ulcerative colitis model assessed as suppression of TNFalpha content in serum at 20 mg/kg, po administrated for 6 days measured on day 9; assay type: functional, organism-based; conditions: time 6.0 day
Mus musculus [20] = assay: Anti-ulcerative colitis activity in DSS-induced C57BL/6 mouse ulcerative colitis model assessed as reduction in fecal occult blood at 10 to 20 mg/kg, po administrated for 6 days measured on day 9; assay type: functional, organism-based; conditions: dose 10-20 mg/kg, time 6.0 day
[21] = target: Receptor-type tyrosine-protein kinase FLT3 (Homo sapiens) (UniProt P36888); assay: Inhibition of human FLT3 at 0.1 uM relative to control
Chain of Receptor-type tyrosine-protein kinase FLT3 (Homo sapiens) (P36888 whole entry): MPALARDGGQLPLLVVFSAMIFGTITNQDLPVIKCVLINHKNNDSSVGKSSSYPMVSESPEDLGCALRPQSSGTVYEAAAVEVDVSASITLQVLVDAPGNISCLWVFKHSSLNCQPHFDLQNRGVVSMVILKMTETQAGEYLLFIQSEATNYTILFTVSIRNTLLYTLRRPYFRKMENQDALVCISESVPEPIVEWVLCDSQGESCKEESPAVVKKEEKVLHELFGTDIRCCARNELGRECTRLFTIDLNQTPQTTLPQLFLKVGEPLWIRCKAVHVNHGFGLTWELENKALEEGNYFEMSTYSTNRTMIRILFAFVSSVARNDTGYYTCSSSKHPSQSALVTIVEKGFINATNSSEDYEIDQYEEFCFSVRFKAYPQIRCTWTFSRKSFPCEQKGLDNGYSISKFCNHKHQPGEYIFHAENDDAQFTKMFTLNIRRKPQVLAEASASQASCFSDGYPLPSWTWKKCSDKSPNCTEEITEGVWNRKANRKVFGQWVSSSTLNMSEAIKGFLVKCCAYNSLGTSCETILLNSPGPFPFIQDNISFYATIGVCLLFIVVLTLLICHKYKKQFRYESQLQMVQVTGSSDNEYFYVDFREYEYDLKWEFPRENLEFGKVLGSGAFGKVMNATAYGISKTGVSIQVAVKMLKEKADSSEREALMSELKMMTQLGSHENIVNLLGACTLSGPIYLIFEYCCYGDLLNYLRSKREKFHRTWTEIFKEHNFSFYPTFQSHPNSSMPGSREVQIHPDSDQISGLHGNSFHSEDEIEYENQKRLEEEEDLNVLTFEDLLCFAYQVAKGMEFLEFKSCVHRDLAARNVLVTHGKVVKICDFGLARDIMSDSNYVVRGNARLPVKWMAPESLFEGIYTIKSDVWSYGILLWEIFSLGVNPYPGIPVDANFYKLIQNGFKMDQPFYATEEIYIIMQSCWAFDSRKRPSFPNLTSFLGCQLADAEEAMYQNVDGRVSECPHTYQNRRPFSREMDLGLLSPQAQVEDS

[22] = AUC (0 to t) in Sprague-Dawley rat at 5 mg/kg, iv by LC-MS/MS analysis; assay type: ADME, organism-based; design: dose 5 mg/kg; conditions: in vivo
[23] = Cmax in Sprague-Dawley rat at 5 mg/kg, iv by LC-MS/MS analysis; assay type: ADME, organism-based; design: route intravenous, dose 5 mg/kg; conditions: in vivo
[24] = Cmax in Sprague-Dawley rat at 20 mg/kg, po by LC-MS/MS analysis; assay type: ADME, organism-based; design: route oral, dose 20 mg/kg; conditions: in vivo
Mus musculus [25] = assay: Anti-inflammatory activity in DSS-induced C57BL/6 mouse ulcerative colitis model assessed as suppression of IL-6 content in colon tissue at 20 mg/kg, po administrated for 6 days measured on day 9; assay type: functional, organism-based; conditions: time 6.0 day
[26] = Volume of distribution at steady state in Sprague-Dawley rat at 5 mg/kg, iv by LC-MS/MS analysis; assay type: ADME, organism-based; conditions: in vivo
[27] = Metabolic stability in cryopreserved human liver microsomes assessed as half life; assay type: ADME, Microsome

## N#CCCn1cc(-c2nc(Nc3ccc4c(ccn4S(=O)(=O)C(F)(F)F)c3)ncc2F)cn1
Mus musculus [1]
  Activity: Active
[2]
  AUC(0-t): 13.9 ng·h/mL
[3]
  MRT(t): 4.98 h
[4]
  Tmax: 1 h
Mus musculus [5]
  Activity: Active
[6]
  inhibition: inactive
Mus musculus [7]
  Activity: Active
Mus musculus [8]
  Activity: Active
[9]
  half-life: 5.95 h
[10]
  MRT last: 2.76 h
Mus musculus [11]
  Activity: Active
Mus musculus [12]
  Activity: Active
[13]
  bioavailability: 12%
Mus musculus [14]
  Activity: Active
[15]
  half-life: 3.64 h
[16]
  clearance: 1.58 mL/min/kg
Mus musculus [17]
  Activity: Active
Mus musculus [18]
  Activity: Active
Mus musculus [19]
  Activity: Active
Mus musculus [20]
  Activity: Active
[21]
  inhibition: 32%
[22]
  AUC(0-t): 29 ng·h/mL
[23]
  Cmax: 48.5 ng/mL
[24]
  Cmax: 8 ng/mL
Mus musculus [25]
  Activity: Active
[26]
  Vdss: 0.985 L/kg
[27]
  half-life: 2.03 h
